Reference: patent US9415055B2, “Cyclic amines” (H. Lundbeck A/S, priority 2012, dated 2016)

What follows are compounds tested against P2X7 receptor (Homo sapiens (Human), UniProt Q99572) (assay: P2X7 FLIPR assay: antagonism of BzATP response in 293 HEK cells stably expressing P2X7 receptor). Settings: FLIPR fluorescence (Fluo-4), agonist BzATP, 293 HEK cells stably transfected with P2X7 receptor.
Assay type: cell-based
Procedure, shortened: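 Antagonist IC50 derived from FLIPR Tetra Fluo-4 calcium signal evoked by BzATP. Compound pre-incubation was 30 min at room temperature on P2X7-expressing HEK293 cells, seeded 24 h before in low-serum medium and dye-loaded 30 min at 37 °C then 30 min at RT.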

P2X7 receptor, sequence (Q99572 whole entry): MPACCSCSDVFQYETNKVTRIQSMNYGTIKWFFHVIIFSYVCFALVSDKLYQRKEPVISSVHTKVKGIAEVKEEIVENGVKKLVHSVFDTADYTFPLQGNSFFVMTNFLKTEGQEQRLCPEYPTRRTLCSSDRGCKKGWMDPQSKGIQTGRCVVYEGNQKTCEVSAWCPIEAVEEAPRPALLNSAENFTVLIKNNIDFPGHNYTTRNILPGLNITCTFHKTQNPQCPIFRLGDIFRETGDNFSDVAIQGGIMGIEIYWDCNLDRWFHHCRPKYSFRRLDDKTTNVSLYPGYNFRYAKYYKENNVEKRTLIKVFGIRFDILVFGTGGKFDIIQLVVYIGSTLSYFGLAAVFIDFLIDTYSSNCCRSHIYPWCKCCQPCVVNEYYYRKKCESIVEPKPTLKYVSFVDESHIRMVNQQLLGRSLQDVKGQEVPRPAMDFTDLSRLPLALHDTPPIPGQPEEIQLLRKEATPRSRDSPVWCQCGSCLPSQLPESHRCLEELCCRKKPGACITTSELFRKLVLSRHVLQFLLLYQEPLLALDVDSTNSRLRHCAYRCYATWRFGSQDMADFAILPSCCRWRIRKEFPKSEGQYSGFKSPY

SMILES	IC50
COc1ccccc1C(=O)NCC(c1ccc(C(F)(F)F)nc1)N1CCOCC1 (single isomer, unassigned; (+)) [(+)-2-methoxy-N-(2-morpholino-2-(6-(trifluoromethyl)pyridin-] [(+)2-1\4ethoxy-N-[2-morpholin-4-yl-2-(6-trifluoromethyl-pyridin-3-yl)-ethyl]-benzamide]	98 nM
O=C(NCC(c1ccc(F)nc1)N1CCC(F)(F)CC1)c1ccccc1Cl (centres unmarked) [2-chloro-N-[2-(4,4-difluoro-1-piperidyl)-2-(6-fluoro-3-pyridyl)ethyl]benzamide]	4 nM
O=C(NCC(c1cncnc1)N1CCOCC1)c1cccc(Cl)c1Cl (centres unmarked) [2,3-Dichloro-N-(2-morpholino-2-pyrimidin-5-yl-ethyl)benzamide]	28 nM
O=C(NCC(c1cnc(C(F)(F)F)nc1)N1CCC(F)(F)CC1)c1c(Cl)cc(F)cc1Cl (single isomer, unassigned; (-)) [(−)2,6-dichloro-N-[2-(4,4-difluoro-1-piperidyl)-2-[2-(triflu] [(−)2,6-dichloro-4-fluoro-N-(2-(4,4-difluoropiperidin-1-yl)-2-(2-(trifluoromethyl)pyrimidin-5-yl)ethyl)benzamide]	15 nM
CCc1ncc(C(CNC(=O)c2cccc(Cl)c2Cl)N2CCC(F)(F)CC2)cn1 (single isomer, unassigned; (+)) [(+)2,3-dichloro-N-[2-(4,4-difluoro-1-piperidyl)-2-(2-ethylpy] [(+2,3-dichloro-N-(2-(4,4-difluoropiperidin-1-yl)-2-(2-ethylpyrimidin-5-yl)ethyl)benzamide]	2.6 nM
COc1cccc(C(=O)NCC(c2cnc(C(F)(F)F)nc2)N2CCOCC2)c1Cl (single isomer, unassigned; (-)) [(−)2-chloro-3-methoxy-N-[2-morpholino-2-[2-(trifluoromethyl)] [(−)2-chloro-3-methoxy-N-(2-morpholino-2-(2-(trifluoromethyl)pyrimidin-5-yl)ethyl)benzamide]	8.2 nM
CS(=O)(=O)c1ccc(Cl)c(C(=O)NCC(c2ccc(C(F)(F)F)nc2)N2CCOCC2)c1 (single isomer, unassigned; (-)) [(−)2-chloro-5-methylsulfonyl-N-[2-morpholino-2-[6-(trifluoro] [(−)2-chloro-5-(methylsulfonyl)-N-(2-morpholino-2-(6-(trifluoromethyl)pyridin-3-yl)ethyl)benzamide]	51 nM
Cc1ncc(C(CNC(=O)c2ccccc2Cl)N2CCCC(F)(F)C2)cn1 (single isomer, unassigned; (-)) [(−)2-chloro-N-[2-(3,3-difluoro-1-piperidyl)-2-(2-methylpyrim] [(−)2-chloro-N-(2-(3,3-difluoropiperidin-1-yl)-2-(2-methylpyrimidin-5-yl)ethyl)benzamide]	28 nM
Cc1ncc(C(CNC(=O)c2cccc(Cl)c2Cl)N2CCCC(C)C2)cn1 (centres unmarked) [2,3-dichloro-N-(2-(3-methylpiperidin-1-yl)-2-(2-methylpyrimidin-5-yl)ethyl)benzamide]	170 nM
COc1ccc(F)c(C(=O)NCC(c2cnc(C(F)(F)F)nc2)N2CCC(F)(F)CC2)c1Cl (single isomer, unassigned; (+)) [(+)2-chloro-N-[2-(4,4-difluoro-1-piperidyl)-2-[2-(trifluorom] [(+)2-chloro-N-(2-(4,4-difluoropiperidin-1-yl)-2-(2-(trifluoromethyl)pyrimidin-5-yl)ethyl)-6-fluoro-3-methoxybenzamide]	8.9 nM
O=C(NCC(c1ccc(C(F)(F)F)nc1)N1CCC(F)(F)CC1)c1ccccc1Cl (centres unmarked) [2-Chloro-N-[2-(4,4-difluoro-1-piperidyl)-2-[6-(trifluoromethyl)-3-pyridyl]ethyl]benzamide]	1.8 nM
COc1ccc(C(=O)NCC(c2cnc(C(F)(F)F)nc2)N2CCC(F)(F)CC2)c(Cl)c1OC (single isomer, unassigned; (+)) [(+)2-chloro-N-[2-(4,4-difluoro-1-piperidyl)-2-[2-(trifluorom] [(+)2-chloro-3,4-dimethoxy-N-(2-(4,4-difluoropiperidin-1-yl)-2-(2-(trifluoromethyl)pyrimidin-5-yl)ethyl)benzamide]	14 nM
Cc1ncc(C(CNC(=O)c2ccccc2Cl)N2CCCCC2)cn1 (single isomer, unassigned; (+)) [(+)2-chloro-N-[2-(2-methylpyrimidin-5-yl)-2-(1-piperidyl)eth] [(+)2-chloro-N-(2-(2-methylpyrimidin-5-yl)-2-(piperidin-1-yl)ethyl)benzamide]	59 nM
Cc1ncc(C(CNC(=O)c2cccc(Cl)c2Cl)N2CCCC(F)(F)C2)cn1 (single isomer, unassigned; (+)) [(+2,3-dichloro-N-(2-(3,3-difluoropiperidin-1-yl)-2-(2-methylpyrimidin-5-yl)ethyl)benzamide]	14 nM
O=C(NCC(c1ccc(C2CC2)nc1)N1CCOCC1)c1cccc(Cl)c1Cl (centres unmarked) [2,3-Dichloro-N-[2-(6-cyclopropyl-pyridin-3-yl)-2-morpholin-4-yl-ethyl]-benzamide]	8.2 nM
Cc1ncc(C(CNC(=O)c2c(Cl)cccc2Cl)N2CCC(F)CC2)cn1 (single isomer, unassigned; (+)) [(+)2,6-dichloro-N-[2-(4-fluoro-1-piperidyl)-2-(2-methylpyrim] [(+)2,6-dichloro-N-(2-(4-fluoropiperidin-1-yl)-2-(2-methylpyrimidin-5-yl)ethyl)benzamide]	9.6 nM
COc1cccc(C(=O)NCC(c2ccc(F)cc2)N2CCC(F)(F)CC2)c1Cl (single isomer, unassigned; (-)) [(−)2-chloro-N-(2-(4,4-difluoropiperidin-1-yl)-2-(4-fluorophenyl)ethyl)-3-methoxybenzamide]	2.6 nM
CN(C)c1ncc(C(CNC(=O)c2cccc(Cl)c2Cl)N2CCC(F)(F)CC2)cn1 (centres unmarked) [2,3-dichloro-N-(2-(4,4-difluoropiperidin-1-yl)-2-(2-(dimethylamino)pyrimidin-5-yl)ethyl)benzamide]	6.6 nM
Cc1ncc(C(CNC(=O)c2c(F)cccc2Cl)N2CCCC(F)(F)C2)cn1 (single isomer, unassigned; (-)) [(−)2-chloro-N-[2-(3,3-difluoro-1-piperidyl)-2-(2-methylpyrim] [(−)2-chloro-6-fluoro-N-(2-(3,3-difluoropiperidin-1-yl)-2-(2-methylpyrimidin-5-yl)ethyl)benzamide]	280 nM
Cc1ncc(C(CNC(=O)c2cccc(Cl)c2Cl)N2CCCCC2C)cn1 (centres unmarked) [2,3-dichloro-N-(2-(2-methylpiperidin-1-yl)-2-(2-methylpyrimidin-5-yl)ethyl)benzamide]	310 nM
